Reference: PubChem BioAssay AID2060484 (Molecular Pharmacology Branch, DTP, NCI, 2025)
pIC50: −log10 of the molar value.

System: SUM149PT spheroids with HUVEC/MSC, viability
Test: Anticancer human tumor SUM149PT cell line growth inhibition [GQUAD];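 further: spheroids exposed to drugs for seven days before readout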;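 on viability, T/C: percent viability relative to DMSO vehicle control taken as 100%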
Conditions: for pIC50: curve of first compound; for viability, T/C: stronger effect = lower value
Text: DNA G-quadruplex Stabilizer Agents in Combinations in Complex Spheroids
A high-throughput screen of multi-cell type tumor spheroids was designed to identify active combinations of DNA G-quadruplex stabilizer agents and targeted small molecules. Complex spheroids include a stromal component modeled by human endothelial cells (HUVEC) and fibroblasts modeled by human mesenchymal stem cells (MSCs). The concentration ranges selected for each drug and investigational agent were based upon clinically achievable concentrations if the clinical Cmax of the agent was known.
Compounds. The drugs and investigational agents: pidnarulex (CX-5461; NSC782164), APTO-253 (NSC789042), BRACO-19 (NSC847499), peposertib (NSC802822), ceralasertib (NSC780249), elimusertib (NSC800525), camonsertib (NSC841442), AZD-1390 (NSC803789), olaparib (NSC753686), talazoparib (NSC767125), ART-558 (NSC835418), sotorasib (NSC818433), MRTX-1133 (NSC836407), SN-38 (NSC673596), topotecan (NSC609699), etoposide (NSC141540), doxorubicin (NSC123127), gemcitabine (NSC613327), 5-fluorouracil (NSC19893), paclitaxel (NSC125973), vemurafenib (NSC761431), panobinostat (NSC761190), R-306465 (JNJ-16241199; NSC773264), adavosertib (NSC754352), TP-3654 (NSC805149), carboplatin (NSC241240), KSQ-4279 (NSC840948), and staurosporine (NSC755774) were obtained from the National Cancer Institute (NCI) Developmental Therapeutics Program Chemical Repository (34). The FDA-approved anticancer drug set is available from the NCI Developmental Therapeutics Program. […] The stock solutions were prepared in dimethyl sulfoxide (DMSO, Sigma-Aldrich, St. Louis, MO, cat. D2650) at 800-fold the tested concentration and stored at -70 degrees C prior to their use. All drugs and investigational agents were tested over a range starting from a high concentration at or near the clinical Cmax and decreasing in half-log increments. If the clinical Cmax for an agent had not been determined, the highest concentration tested was 10 microM.
2.3 Cell Culture. All cells were maintained in an incubator at 37 degrees C and 5% CO2 with 95% humidity. The PDC lines were cultured according to standard operating procedures established by the NCI PDMR. All PDCs were thawed and cultured in Matrigel-coated flasks prepared with a working solution of 1X Ham's F-12 nutrient mix, without supplementation (Invitrogen, cat. 11765054), 100 U/mL penicillin-streptomycin (Invitrogen, cat. 15140122), and 2.5% Matrigel (Corning Inc., cat. 354248) for the first three passages. The 857933-349-R-J2-PDC line was cultured in 6C/Colon 1B media, which includes advanced DMEM/F-12 (Thermo Fisher Scientific, cat. 12634028), 10 mM HEPES (Thermo Fisher Scientific, cat. 15630080), 1X GlutaMAX supplement (Thermo Fisher Scientific, cat. 35050061), 0.1 mg/mL primocin (InvivoGen, cat. ant-pm-2), 10% defined fetal bovine serum, heat inactivated (HyClone Laboratories Inc., cat. SH30070.03HI), 50% L-WRN conditioned media (ATCC, cat. CRL-3276), 1.25 mM N-Acetyl-L-cysteine (Sigma-Aldrich, cat. A9165), 10 mM nicotinamide (Sigma-Aldrich, cat. N0636), 1X B-27 supplement (Thermo Fisher Scientific, cat. 17504044), 1X N-2 supplement (Thermo Fisher Scientific, cat. 17502048), 10 microM Y-27632 dihydrochloride (Tocris Bioscience, cat. 1254), and 50 ng/mL human EGF recombinant protein (Thermo Fisher Scientific, cat. PHG0311). The 485176-168-R4-J1-PDC line was cultured in Panc media, which includes all 6C/Colon 1B media components plus 100 ng/mL human FGF-10 (Thermo Fisher Scientific, cat. 100-26), 500 nM SB-431542 (Selleckchem, cat. S1067), and gastrin (Tocris, cat. 3006).
[…]

[1] = second compound 0.0316 µM, first compound 0.0316 µM
[2] = second compound 0.0316 µM, first compound 0.316 µM
[3] = second compound 0.1 µM, first compound 0.0316 µM
[4] = second compound 0.1 µM, first compound 0.316 µM
[5] = second compound 0.316 µM, first compound 0.0316 µM
[6] = second compound 0.316 µM, first compound 0.316 µM
[7] = second compound 1 µM, first compound 0.0316 µM
[8] = second compound 1 µM, first compound 0.316 µM
[9] = second compound 3.16 µM, first compound 0.0316 µM
[10] = second compound 3.16 µM, first compound 0.316 µM
[11] = second compound 10 µM, first compound 0.0316 µM
[12] = second compound 10 µM, first compound 0.316 µM

## CC[C@@]1(O)C(=O)OCc2c1cc1n(c2=O)Cc2cc3c(CN(C)C)c(O)ccc3nc2-1 + Cc1cnc(CNC(=O)c2c(=O)c3ccc(N4CCCN(C)CC4)nc3n3c2sc2ccccc23)cn1
Second compound 0.0316 µM
  pIC50: 7.58
Second compound 0.1 µM
  pIC50: 7.73
Second compound 0.316 µM
  pIC50: 7.83
Second compound 1 µM
  pIC50: > 9.00
Second compound 3.16 µM
  pIC50: > 9.00
Second compound 10 µM
  pIC50: > 9.00
Second compound 0.0316 µM, first compound 0.000999 µM
  viability, T/C: 90.4%
Second compound 0.0316 µM, first compound 0.00316 µM
  viability, T/C: 71.8%
Second compound 0.0316 µM, first compound 0.00999 µM
  viability, T/C: 77.7%
[1]
  viability, T/C: 44.9%
Second compound 0.0316 µM, first compound 0.0999 µM
  viability, T/C: 36.1%
[2]
  viability, T/C: 40.4%
Second compound 0.1 µM, first compound 0.000999 µM
  viability, T/C: 60.9%
Second compound 0.1 µM, first compound 0.00316 µM
  viability, T/C: 66.8%
Second compound 0.1 µM, first compound 0.00999 µM
  viability, T/C: 56.8%
[3]
  viability, T/C: 43.5%
Second compound 0.1 µM, first compound 0.0999 µM
  viability, T/C: 44.7%
[4]
  viability, T/C: 44.6%
Second compound 0.316 µM, first compound 0.000999 µM
  viability, T/C: 48.5%
Second compound 0.316 µM, first compound 0.00316 µM
  viability, T/C: 58.3%
Second compound 0.316 µM, first compound 0.00999 µM
  viability, T/C: 55.1%
[5]
  viability, T/C: 38.9%
Second compound 0.316 µM, first compound 0.0999 µM
  viability, T/C: 42%
[6]
  viability, T/C: 45.1%
Second compound 1 µM, first compound 0.000999 µM
  viability, T/C: 38.5%
Second compound 1 µM, first compound 0.00316 µM
  viability, T/C: 44.6%
Second compound 1 µM, first compound 0.00999 µM
  viability, T/C: 45.5%
[7]
  viability, T/C: 41.5%
Second compound 1 µM, first compound 0.0999 µM
  viability, T/C: 37.4%
[8]
  viability, T/C: 39.3%
Second compound 3.16 µM, first compound 0.000999 µM
  viability, T/C: 38.5%
Second compound 3.16 µM, first compound 0.00316 µM
  viability, T/C: 38%
Second compound 3.16 µM, first compound 0.00999 µM
  viability, T/C: 40.4%
[9]
  viability, T/C: 37.1%
Second compound 3.16 µM, first compound 0.0999 µM
  viability, T/C: 36.3%
[10]
  viability, T/C: 35.1%
Second compound 10 µM, first compound 0.000999 µM
  viability, T/C: 0.4%
Second compound 10 µM, first compound 0.00316 µM
  viability, T/C: 11.1%
Second compound 10 µM, first compound 0.00999 µM
  viability, T/C: 9.79%
[11]
  viability, T/C: 11.4%
Second compound 10 µM, first compound 0.0999 µM
  viability, T/C: 2.25%
[12]
  viability, T/C: 2.23%

## COc1ccc([C@@H](O)c2cc(-c3ncnc4cc(N5CCOCC5)ccc34)c(F)cc2Cl)nn1 + Cc1cnc(CNC(=O)c2c(=O)c3ccc(N4CCCN(C)CC4)nc3n3c2sc2ccccc23)cn1
Second compound 0.0316 µM
  pIC50: 6.41
Second compound 0.1 µM
  pIC50: 6.85
Second compound 0.316 µM
  pIC50: 7.21
Second compound 1 µM
  pIC50: > 7.50
Second compound 3.16 µM
  pIC50: > 7.50
Second compound 10 µM
  pIC50: > 7.50
[1]
  viability, T/C: 88.4%
Second compound 0.0316 µM, first compound 0.1 µM
  viability, T/C: 68.2%
[2]
  viability, T/C: 55.8%
Second compound 0.0316 µM, first compound 1 µM
  viability, T/C: 35.8%
Second compound 0.0316 µM, first compound 3.16 µM
  viability, T/C: 24.5%
Second compound 0.0316 µM, first compound 10 µM
  viability, T/C: 18.5%
[3]
  viability, T/C: 65.8%
Second compound 0.1 µM, first compound 0.1 µM
  viability, T/C: 51.8%
[4]
  viability, T/C: 44.1%
Second compound 0.1 µM, first compound 1 µM
  viability, T/C: 25.5%
Second compound 0.1 µM, first compound 3.16 µM
  viability, T/C: 21.5%
Second compound 0.1 µM, first compound 10 µM
  viability, T/C: 16.3%
[5]
  viability, T/C: 53%
Second compound 0.316 µM, first compound 0.1 µM
  viability, T/C: 48.2%
[6]
  viability, T/C: 36%
Second compound 0.316 µM, first compound 1 µM
  viability, T/C: 24.5%
Second compound 0.316 µM, first compound 3.16 µM
  viability, T/C: 19.2%
Second compound 0.316 µM, first compound 10 µM
  viability, T/C: 14.8%
[7]
  viability, T/C: 43.4%
Second compound 1 µM, first compound 0.1 µM
  viability, T/C: 38.9%
[8]
  viability, T/C: 35.4%
Second compound 1 µM, first compound 1 µM
  viability, T/C: 23.2%
Second compound 1 µM, first compound 3.16 µM
  viability, T/C: 19.6%
Second compound 1 µM, first compound 10 µM
  viability, T/C: 15.7%
[9]
  viability, T/C: 34.5%
Second compound 3.16 µM, first compound 0.1 µM
  viability, T/C: 34.1%
[10]
  viability, T/C: 29.4%
Second compound 3.16 µM, first compound 1 µM
  viability, T/C: 20.7%
Second compound 3.16 µM, first compound 3.16 µM
  viability, T/C: 17.6%
Second compound 3.16 µM, first compound 10 µM
  viability, T/C: 13.3%
[11]
  viability, T/C: 0.17%
Second compound 10 µM, first compound 0.1 µM
  viability, T/C: 1.03%
[12]
  viability, T/C: 0.2%
Second compound 10 µM, first compound 1 µM
  viability, T/C: 0.32%
Second compound 10 µM, first compound 3.16 µM
  viability, T/C: 1.7%
Second compound 10 µM, first compound 10 µM
  viability, T/C: 1.3%
